Ki data for six molecules are collected here from patent US6680323B2, “Dihydropyrimidines and uses thereof” (Synaptic Pharmaceutical Corporation, priority 1998, dated 2004).

In one assay the target is T1, human α2b receptor (Homo sapiens, UniProt P18089).
T1 construct: expressed in transfected cells
T1 sequence (P18089 1-450): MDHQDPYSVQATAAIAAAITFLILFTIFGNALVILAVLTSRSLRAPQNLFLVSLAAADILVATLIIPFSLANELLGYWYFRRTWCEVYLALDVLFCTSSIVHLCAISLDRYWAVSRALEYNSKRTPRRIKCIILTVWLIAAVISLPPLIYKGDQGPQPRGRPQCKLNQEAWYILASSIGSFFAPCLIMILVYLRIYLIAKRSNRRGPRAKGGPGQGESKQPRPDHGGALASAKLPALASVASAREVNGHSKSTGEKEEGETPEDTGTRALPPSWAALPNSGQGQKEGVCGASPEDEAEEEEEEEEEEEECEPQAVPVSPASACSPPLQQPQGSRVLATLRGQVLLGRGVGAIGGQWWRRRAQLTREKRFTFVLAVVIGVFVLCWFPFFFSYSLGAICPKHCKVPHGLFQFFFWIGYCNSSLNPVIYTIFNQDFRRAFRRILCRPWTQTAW
Nature of the assay: Competition binding ([3H]rauwolscine) at cloned human α2b receptor. Particulars: transfected LM(tk−) cells, [3H]rauwolscine 0.5 nM; read-out: Binding affinity hα2b. The text has this: (§1) α2 Human Adrenergic Receptors
(§2) To determine the potency of α1 antagonists at the α2 receptors, LM(tk−) cell lines stably transfected with the genes encoding the α2a, α2b, and α2c receptors were used. The cell line expressing the α2a receptor is designated L-α2A, and was deposited on Nov. 6, 1992 under ATCC Accession No. CRL 11180. The cell line expressing the α2b receptor is designated L-NGC-α2B, and was deposited on Oct. 25, 1989 under ATCC Accession No. CRL10275. The cell line expressing the α2c receptor is designated L-α2C, and was deposited on Nov. 6, 1992 under ATCC Accession No. CRL-11181. All the cell lines were deposited with the American Type Culture Collection, 12301 Parklawn Drive, Rockville, Md. 20852, U.S.A. under the provisions of the Budapest Treaty for the International Recognition of the Deposit of Microorganisms for the Purposes of Patent Procedure. Cell lysates were prepared as described above (see Radioligand Binding Assays), and suspended in 25 mM glycylglycine buffer (pH 7.6 at room temperature). Equilibrium competition binding assay were performed using [3H]rauwolscine (0.5 nM), and nonspecific binding was determined by incubation with 10 μM phentolamine. The bound radioligand was separated by filtration through GF/B filters using a cell harvester.

The target of another assay is T2, human α2c receptor (Homo sapiens, UniProt P18825).
T2 construct: expressed in transfected cells
T2 sequence (P18825 1-462): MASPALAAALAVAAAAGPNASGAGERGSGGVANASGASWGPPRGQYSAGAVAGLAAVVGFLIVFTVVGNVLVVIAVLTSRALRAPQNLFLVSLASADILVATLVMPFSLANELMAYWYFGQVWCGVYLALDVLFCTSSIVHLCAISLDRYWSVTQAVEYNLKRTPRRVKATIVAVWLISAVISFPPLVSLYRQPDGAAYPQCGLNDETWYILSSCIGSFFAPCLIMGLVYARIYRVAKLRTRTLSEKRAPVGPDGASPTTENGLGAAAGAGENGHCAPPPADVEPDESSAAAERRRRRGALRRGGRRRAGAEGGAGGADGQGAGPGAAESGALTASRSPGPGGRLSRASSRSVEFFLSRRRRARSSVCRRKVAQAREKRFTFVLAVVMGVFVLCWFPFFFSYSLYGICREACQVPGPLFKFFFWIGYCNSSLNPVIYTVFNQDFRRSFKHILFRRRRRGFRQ
Nature of the assay: Competition binding ([3H]rauwolscine) at cloned human α2c receptor. The note with it: transfected LM(tk−) cells, [3H]rauwolscine 0.5 nM; read-out: Binding affinity hα2c.
Text: as §1, §2

Another assay has as its target T3, human α1b receptor (Homo sapiens, UniProt P35368).
T3 construct: The entire coding region of α1b (1563 bp); expressed in transfected cells
T3 sequence (P35368 1-520): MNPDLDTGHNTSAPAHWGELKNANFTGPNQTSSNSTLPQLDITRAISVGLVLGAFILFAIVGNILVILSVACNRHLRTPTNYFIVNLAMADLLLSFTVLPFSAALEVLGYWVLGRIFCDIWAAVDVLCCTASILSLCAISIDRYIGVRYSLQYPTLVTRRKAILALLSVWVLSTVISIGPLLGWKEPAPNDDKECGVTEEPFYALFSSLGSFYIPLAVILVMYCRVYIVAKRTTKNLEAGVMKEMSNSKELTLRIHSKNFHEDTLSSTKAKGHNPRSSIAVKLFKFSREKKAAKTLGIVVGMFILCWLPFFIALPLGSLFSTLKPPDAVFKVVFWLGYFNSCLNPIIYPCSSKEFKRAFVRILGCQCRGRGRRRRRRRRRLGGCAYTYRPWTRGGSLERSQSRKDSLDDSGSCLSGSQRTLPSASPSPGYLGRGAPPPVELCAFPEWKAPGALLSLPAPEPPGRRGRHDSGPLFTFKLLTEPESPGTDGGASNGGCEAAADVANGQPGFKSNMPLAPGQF
As to the kind of experiment: Radioligand binding ([3H]prazosin) at cloned human α1b receptor. Particulars: membranes of transfected LM(tk−) cells, [3H]prazosin 0.5 nM; read-out: Binding affinity hα1b. On the procedure:
The activity of compounds at the different human receptors was determined in vitro using cultured cell lines that selectively express the receptor of interest. These cell lines were prepared by transfecting the cloned cDNA or cloned genomic DNA or constructs containing both genomic DNA and cDNA encoding the human α-adrenergic receptors as follows:
α1b Human Adrenergic Receptor
The entire coding region of α1b (1563 bp), including 200 base pairs and 5′ untranslated sequence (5′ UT) and 600 bp of 3′ untranslated sequence (3′ UT), was cloned into the EcoRI site of pCEXV-3 eukaryotic expression vector.
The construct involved ligating the full-length containing EcoRI brainstem cDNA fragment from λ ZapII into the expression vector. Stable cell lines were selected as described above. The cell line used herein was designated L-α1B and was deposited with the American Type Culture Collection, 12301 Parklawn Drive, Rockville, Md. 20852, U.S.A. under the provisions of the Budapest Treaty for the International Recognition of the Deposit of Microorganisms for the Purposes of Patent Procedure. The cell line L-α1B was accorded ATCC Accession No. CR 11139, on Sep. 29, 1992.
Radioligand Binding Assays for α1 Receptors
Transfected cells from culture flasks were scraped into 5 ml of 5 mM Tris-HCl, 5 mM EDTA, pH 7.5, and lysed by sonication. The cell lysates were centrifuged at 1000 rpm for 5 min at 4° C., and the supernatant was centrifuged at 30,000×g for 20 min at 4° C. The pellet was suspended in 50 mM Tris-HCl, 1 mM MgCl2, and 0.1% ascorbic acid at pH 7.5. Binding of the α1 antagonist [^3H]prazosin (0.5 nM, specific activity 76.2 Ci/mmol) to membrane preparations of LM(tk−) cells was done in a final volume of 0.25 ml and incubated at 37° C. for 20 min. Nonspecific binding was determined in the presence of 10 μM phentolamine. The reaction was stopped by filtration through GF/B filters using a cell harvester. Inhibition experiments, routinely consisting of 7 concentrations of the tested compounds, were analyzed using a non-linear regression curve-fitting computer program to obtain Ki values.

Each structure is given as a SMILES string. Structures can show the parent of a compound that is named as a salt.

`O=C1OCC2=C1C(c1ccc(F)c(F)c1)N(C(=O)NCCCN1CCC(c3ccccn3)CC1)C(=O)N2` (single isomer, unassigned; (+)) [Compound 8, (+)-1-3-{[4-(3,4-Difluorophenyl)-2,5-dioxo-1,2,5,7-tetrahydro-4H-furo[3,4-d]-pyrimidine-3-carbonyl]amino}-propyl-4-(2-pyridyl)-piperidine]: the Ki turned out to be 0.97 µM on human α2b receptor, 1500 nM at human α2c receptor and 1600 nM at human α1b receptor.
As for `COCC1=C(C(=O)OC)[C@H](c2ccc(F)c(F)c2)N(C(=O)NCCCO)C(=O)N1` [Compound 1, (+)-1,2,3,6-Tetrahydro-1-(3-hydroxypropyl)carboxamido-5-methoxycarbonyl-4-methoxymethyl-6-(3,4-difluorophenyl)-2-oxo-pyrimidine], the Ki at human α2b receptor is 26 µM; at human α2c receptor, over 50000 nM; on human α1b receptor, over 50000 nM.
With `COCC1=C(C(=O)OC)[C@H](c2ccc(F)c(F)c2)N(C(=O)NCCCN2CCC(c3cccc[n+]3[O-])CC2)C(=O)N1` [Compound 2, (+)-1,2,3,6-Tetrahydro-1-{N-[4-(2-pyridyl)piperidin-1-yl]propyl}carboxamido-5-methoxycarbonyl-4-methoxymethyl-6-(3,4-difluorophenyl)-2-oxopyrimidine-pyridine-N-oxide hydrochloride], the Ki at human α2b receptor turned out to be 8.7 µM; on human α2c receptor, 1500 nM; on human α1b receptor, 1500 nM.
In the case of `COCC1=C(C(=O)OC)[C@H](c2ccc(F)c(F)c2)N(C(=O)NCCC[n+]2ccc(-c3ccccn3)cc2)C(=O)N1` [Compound 3, 4-(2-Pyridyl)-1-{3-[5-carboxymethyl-4-methoxymethyl-2-oxo-6(S)-(3,4-difluorphenyl)-1,2,3,6-tetrahydropyrimidin-1-yl]carboxyaminopropyl}pyridinium chloride], the Ki is 9.66 µM on human α2b receptor, 3390 nM at human α2c receptor and over 2000 nM at human α1b receptor.
`COC(=O)C1=C(CO)NC(=O)N(C(=O)NCCCN2CCC(c3ccccn3)CC2)[C@H]1c1ccc(F)c(F)c1` [Compound 7, (+)-1,2,3,6-Tetrahydro-1-{N-[4-(2-pyridyl)piperidin-1-yl]propyl}carboxamido-5-methoxycarbonyl-4-hydroxymethyl-6-(3,4-difluorophenyl)-2-oxopyrimidine]: the Ki on human α2b receptor came out at 1.2 µM; at human α2c receptor, 260 nM; on human α1b receptor, 530 nM.
`O=C(O)CCNC(=O)N1C(=O)NC2=C(C(=O)OC2)[C@@H]1c1ccc(F)c(F)c1` [Compound 9]: the results for the Ki on human α2b receptor, at human α2c receptor and on human α1b receptor were over 50 µM, over 50000 nM and over 2000 nM, respectively.
